Results reported in PubChem BioAssay (NCI).
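Assay format: 96-well plates, 48-hour exposure. At the GI50, growth is halved. Definition used: TGI = concentration required for complete inhibition of growth.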

What was measured:
Assay in all cases: NCI anticancer screen, dose series, 48 h
MDA-MB-231 breast = tested on: MDA-MB-231 breast
NCI/ADR-RES ovarian = tested on: NCI/ADR-RES ovarian
DU-145 prostate = tested on: DU-145 prostate
MDA-N = tested on: MDA-N
RXF-631 renal = tested on: RXF-631 renal
KM20L2 colon = tested on: KM20L2 colon
SNB-78 CNS = tested on: SNB-78 CNS
LXFL 529 NSCLC = tested on: LXFL 529 NSCLC
HOP-18 NSCLC = tested on: HOP-18 NSCLC

| Structure (SMILES) | GI50 (MDA-MB-231 breast) | TGI (MDA-MB-231 breast) | GI50 (NCI/ADR-RES ovarian) | TGI (NCI/ADR-RES ovarian) | GI50 (DU-145 prostate) | TGI (DU-145 prostate) | TGI (MDA-N) | TGI (RXF-631 renal) | TGI (KM20L2 colon) | TGI (SNB-78 CNS) | TGI (LXFL 529 NSCLC) | TGI (HOP-18 NSCLC) |
| --- | --- | --- | --- | --- | --- | --- | --- | --- | --- | --- | --- | --- |
| COc1ccc(Nc2[nH]n(C3=Nc4ccccc4Sc4ccccc43)c(=O)c2C#N)cc1 | 1.39 µM | 11.9 µM | 1.43 µM | 6.64 µM | 2.83 µM | 61.5 µM |  |  |  |  |  |  |
| S=P(C1CCCCC1)(C1CCCCC1)C(c1cccnc1)N1CCCC1 (stereo not drawn) |  | 39.1 µM |  | 38.6 µM |  | 29.8 µM | 39.3 µM |  |  |  |  |  |
| O=c1[nH]ccc2nc(N3CCC(O)CC3)nc(Nc3ccc(N4CCOCC4)cc3)c12 | 7.41 µM | > 100 µM | > 100 µM | > 100 µM | 2.95 µM | > 100 µM |  |  |  |  |  |  |
| CC[C@]12C=CCN3CC[C@@]4(c5ccc(OC)cc5N(C)[C@H]4[C@@](O)(C(=O)OC)[C@@H]1OC(=O)CCCC[P+](c1ccccc1)(c1ccccc1)c1ccccc1)[C@@H]32 | 0.414 µM | 1.9 µM | > 100 µM | > 100 µM | 0.875 µM | 13.2 µM |  |  |  |  |  |  |
| O=S1(=O)OCc2ccccc21 |  | > 100 µM |  | > 100 µM |  | > 100 µM | > 100 µM |  |  |  |  |  |
| O=c1/c(=C/c2ccccc2O)sc2nc3ccccc3n12 |  |  |  |  |  |  |  | > 100 µM | > 100 µM | > 100 µM | > 100 µM |  |
| OCCNC(=S)Nc1ccc(-c2nc(N3C[C@H]4CC[C@@H](C3)O4)c3cccn3n2)cc1 | 0.0583 µM | 6.57 µM | 0.172 µM | 2.16 µM | 0.0987 µM | 24.2 µM |  |  |  |  |  |  |
| Nc1c(C(=O)c2cccc(C(O)(CO)CO)c2)cnn1-c1ccc(F)cc1 | > 25 µM | > 25 µM | > 25 µM | > 25 µM | > 25 µM | > 25 µM |  |  |  |  |  |  |
| Cc1ccc(C(=O)Nc2ccc(CN3CCN(C)CC3)c(C(F)(F)F)c2)cc1C#Cc1cnc(N)c2ccc(C#N)cc12 | 0.23 µM | 2.02 µM | 2.03 µM | 10.1 µM | 0.0403 µM | 7.39 µM |  |  |  |  |  |  |
| Cc1cc(C)nc(NS(=O)(=O)c2ccc(Nc3nc4nc(NCc5ccccc5)nc(-c5ccc(O)cc5)c4c(=O)[nH]3)cc2)n1 | 29.6 µM | > 100 µM | > 100 µM | > 100 µM | 25.9 µM | > 100 µM |  |  |  |  |  |  |
| COc1ccc2c3c(ccc2c1)NC(C(=O)O)CC3 (stereo not drawn) |  | > 100 µM |  | > 100 µM |  | > 100 µM | > 100 µM |  |  |  |  |  |
| Cc1ccccc1NC(=O)N/C(N)=N/c1nc(C)c(C)s1 | 1.52 µM | > 100 µM | 0.089 µM | 15.8 µM | 0.481 µM | > 100 µM |  |  |  |  |  |  |
| COc1ccc(C2CC(c3ccc4ccccc4c3)=NN2/C=C2\SC(=S)N(NC(=O)Cc3ccccc3Nc3c(Cl)cccc3Cl)C2=O)cc1 (stereo not drawn) | 1.6 µM | > 44.4 µM | 0.421 µM | > 34.5 µM | 0.404 µM | 27.1 µM |  |  |  |  |  |  |
| O=C(/C=C/c1ccc[nH]1)c1ccccc1 |  |  |  |  |  |  |  |  | > 100 µM | > 100 µM | > 100 µM | > 100 µM |
| CCCCCCCC(=O)SCC/C=C/[C@@H]1CC(=O)NCc2cccc(n2)C2=N[C@@](C)(CS2)C(=O)N[C@@H](C(C)C)C(=O)O1 | 0.119 µM | > 19.8 µM | 0.319 µM | > 33.3 µM | 0.0287 µM | > 33.3 µM |  |  |  |  |  |  |
| COc1cccc(-c2cc(=O)c3cc(C)c(C)c(C(=O)O)c3o2)c1 |  |  |  |  |  |  |  | > 100 µM | > 100 µM | > 100 µM | > 100 µM |  |
| COc1ccc2nc(-c3ccc(Cl)cc3)cc(-c3nnc(SCC(=O)Nc4ccc(/C(C)=N\O)cc4)o3)c2c1 | 2.05 µM | 8.34 µM | 1.29 µM | 3.75 µM | 1.52 µM | 5.53 µM |  |  |  |  |  |  |
| CS(=O)(=O)c1nccc(-c2c(-c3cccc(OCc4ccccc4)c3)nc3sccn23)n1 | 16.2 µM | > 100 µM | 20.3 µM | > 100 µM | 1.76 µM | 3.31 µM |  |  |  |  |  |  |
| COc1ccc(C(=O)OC2C(OC3C(O)COC(O[C@H]4C[C@H]5[C@@H]6CC=C7C[C@@H](O)CC[C@]7(C)[C@H]6CC[C@]5(C)[C@H]4[C@H](C)C(=O)CCC(C)C)C3OC(=O)C(C)C)OCC(O)C2O)cc1 (stereo partly drawn) | 0.101 µM | 4.65 µM | 3.32 µM | 7.2 µM | 0.017 µM | 4.65 µM |  |  |  |  |  |  |
| C=C(c1ccc(OC)c(/C=C/C(=O)c2cc(OC)c(OC)c(OC)c2)c1)c1cc(OC)c(OC)c(OC)c1 | 0.995 µM | > 100 µM | 0.936 µM | 4.85 µM | 1.32 µM | 3.11 µM |  |  |  |  |  |  |
| Oc1ccccc1/C=N/Nc1nc2ccccc2s1 | 2.49 µM | > 100 µM | 6.1 µM | > 100 µM | 9.35 µM | > 100 µM |  |  |  |  |  |  |
| N=C(N)c1ccc(CS(=O)(=O)F)cc1 | > 100 µM | > 100 µM | > 100 µM | > 100 µM | > 100 µM | > 100 µM |  |  |  |  |  |  |
| CC1=CC[C@@H]2[C@@H](CC[C@@]2(C)O)C(C)(C)[C@H]1CC[C@@H]1[C@@]2(C)CC[C@@H](O)C(C)(C)O[C@@H]2CC[C@]1(C)O |  | 34.5 µM |  |  |  | > 100 µM | 53.2 µM |  |  |  |  |  |
| Nc1nc2ccccc2c2[nH]c3ccccc3c12 | 1.22 µM | 2.57 µM |  |  | 1.94 µM | 10.5 µM |  |  |  |  |  |  |
| Cc1c(C)n(CC(O)CNC2CCCCC2C)c2ccccc12 (stereo not drawn) | 6.44 µM | 20.5 µM | 15.5 µM | 29.8 µM | 17.8 µM | 31.6 µM |  |  |  |  |  |  |
| COC1=CC(=O)c2c(O)c3c(c(O)c2C1=O)OC1(Oc2c(cc4cc(C)oc(=O)c4c2O)CC1O)C3O (stereo not drawn) |  | 54.5 µM |  | > 100 µM |  | > 100 µM | 42.9 µM |  |  |  |  |  |
| Cc1cc(NCCCNc2ccnc3cc(Cl)ccc23)nc(Nc2ccc(C(=O)N3CCCCC3)cc2)n1 |  |  | 14.9 µM | 35.9 µM | 3.42 µM | 13.1 µM |  |  |  |  |  |  |
| C=C(c1ccccc1)[C@@]1(O)CCCC[C@H]1NC(c1ccccc1)c1ccccc1 |  |  |  |  |  |  |  |  | 43.5 µM | 50.7 µM | 23.9 µM | 35.4 µM |
| CN(C(=N)c1ccccc1)c1ccccc1 |  |  |  |  |  |  |  |  | > 100 µM | > 100 µM | > 100 µM | > 100 µM |
| Nc1nc(=O)c2[nH]cnc2n1O |  | > 100 µM |  | > 100 µM |  | > 100 µM | > 100 µM |  |  |  |  |  |
